Results taken from patent EP2173340B1, “METHODS OF ENHANCING COGNITIVE FUNCTION USING NON-PEPTIDIC COMPOUNDS” (Acumen Pharmaceuticals, Inc., priority 2007, dated 2009).

Experiments:
Aβ1-42 = target: T1, Aβ1-42 (Homo sapiens, UniProt P05067); assay: FRET assay of Aβ1-42 oligomer (ADDL) formation; type: biochemical; conditions: for IC50: assay of Example 1, 0.2 µM FITC-Aβ(1-42) and 0.8 µM Aβ(1-42), 100 mM MgCl2, pH 8.0, 37°C
T1 construct: containing 0.2 µM FITC-Aβ(1-42) and 0.8 µM Aβ(1-42)
Source text: Fluorescence (or Förster) Resonance Energy Transfer (FRET) is a distance-dependent, non-radiative transfer of energy in which the de-excitation of one fluorophore (donor) is coupled to excitation of another fluorophore (acceptor). FRET occurs if (1) the quantum of energy emitted by a donor fluorophore corresponds to an acceptor fluorophore's excitation energy, (2) the orientations of donor and acceptor transition dipoles are nearly parallel and (3) the donor fluorescent emission spectrum overlaps the acceptor absorption spectrum.
In this assay, Aβ1-42 oligomer formation is monitored by FRET using N-terminal conjugates of fluorescein-Aβ1-42 as both the donor and acceptor fluorophore (fluorescein-fluorescein Ro∼45 Å). […] Inhibition of Aβ1-42 assembly is observed as the absence or attenuation of fluorescein quenching.
FRET and FP assays are performed in 384-well Coming Non-Binding Surface, black, opaque microtiter plates, and the assay buffer consists of 50 mM MOPS-Tris (pH 8.0) with 100 mM MgCl2. […] ADDL assembly is monitored on a Tecan GENios Pro plate reader, exciting at a wavelength of 485 nm and detecting emission at a wavelength of 515 nm. Kinetic traces are collected by recording fluorescence intensity and polarization readings every five minutes over about three to about a six-hour time course. […] Positive control reactions contain all buffer components in the absence of added small molecule or antibody reagents. […]

Aβ1-42 ADDLs = target: T2, Aβ1-42 ADDLs (Homo sapiens, UniProt P05067); assay: Alternating Lever Cyclic Ratio (ALCR) rat model; type: in vivo; conditions: for Approach Errors Mean / Perseveration Errors Mean: 20 µl via cannula aimed at lateral ventricle, tested about 3 hours following injection, base line error rate equalized to 1.00
T2 construct: Synthetic Aβ1-42 powder was dissolved in 1,1,1,3,3,3 hexafluorisopropanol (HFIP)
Experimental: Preparations of Aβ1-42 ADDLs and a potential therapeutic compounds under the Alternating Lever Cyclic Ratio (ALCR) rat model of AD were tested. This highly sensitive model has been able to detect cognitive deficits due to direct injection of cell-derived Aβ oligomers into rat brain. In this study, a direct injection of ADDLs made from synthetic Aβ1-42 and a putative therapeutic compound under the ALCR procedure were tested.
The ALCR test has proven to be much more sensitive than previously published methods for measuring drug effects on cognitive function. In this task, rats must learn a complex sequence of lever-pressing requirements in order to earn food reinforcement in a two-lever experimental chamber. Subjects must alternate between two levers by switching to the other lever after pressing the first lever enough to get food reward. The exact number of presses required for each food reward changes, first increasing from 2 responses per food pellet up to 56 presses per food pellet, then decreasing back to 2 responses per pellet. Intermediate values were based on the quadratic function, x^2 - x. One cycle was an entire ascending and descending sequence of these lever press requirements (e.g., 2, 6, 12, 20, 30, 42, 56, 56, 42, 30, 20, 12, 6, and 2 presses per food reward). Six such full cycles were presented during each daily session.
Synthetic Aβ1-42 powder was dissolved in 1,1,1,3,3,3 hexafluorisopropanol (HFIP) to afford a solution of Aβ1-42 in HFIP of about 1 mM and allowed to incubate at ambient temperature for about 1 h. The resulting solution was chilled on ice for about 5-10 min, then aliquoted into eppendorf tubes to provide about 50 µl of solution per tube. The tubes were then placed in a chemical fume hood and allowed to stand overnight to allow the HFIP to evaporate under a slow stream of nitrogen. To removed final traces of HFIP, the tubes were subjected to two SpeedVac cycles of 15 min at room temperature and about 15 to 25 in Hg of vacuum. The resulting films of monomerized Aβ1-42 peptide were stored over desiccant at -80 °C until used.
A tube of monomerized Aβ1-42 peptide was warmed to room temperature and the Aβ1-42 peptide was dissolved in anhydrous DMSO to afford a peptide stock DMSO solution containing about 10 µM to about 100 µM Aβ1-42 peptide in DMSO.
2 µl of a 20 mM stock solution of test compound in anhydrous DMSO is added to 998 µl of neural basal media (phenol red free, Gibco 12348-017) to give a compound neural basal media solution containing 40 µM of test compound in neural basal media.
For the Aβ1-42 peptide only treatment, peptide stock DMSO solution is added to 37 °C neural basal to obtain the requisite Aβ1-42 peptide monomer concentration, provided that the maximum concentration of DMSO is 1% or less, and the tube is vortexed for 30 to 60 seconds, spun down briefly in a microfuge and incubated at 37 °C for 15 min prior to the start of injections.
For the Aβ1-42 peptide plus test compound treatment, peptide stock DMSO solution is added to 37 °C compound neural basal media solution to obtain the requisite Aβ1-42 peptide monomer concentration, provided that the maximum concentration of DMSO is 1% or less, and the tube is vortexed for 30 to 36 seconds, spun down briefly in a microfuge and incubated at 37 °C for 15 min prior to the start of injections.
For control injections, compound neural basal media solution is incubated at 37 °C for 15 min prior to the start of injections.
Rats: Rats were trained under ALCR until their error rates were stable. Once the rats were placed upon the final ALCR procedure, training sessions were conducted 7 days each week until the end of the study.
Surgery: All rats received a single 28 ga cannula, which was permanently affixed to the skull, and aimed at the lateral ventricle. Half the rats received cannula in the right ventricle and half received cannula in the left ventricle. Rats were allowed 5 days to recover from surgery before training resumed. […]

[1] = compound combined with Aβ1-42 ADDLs

T1 sequence (P05067 672-713 limits assumed): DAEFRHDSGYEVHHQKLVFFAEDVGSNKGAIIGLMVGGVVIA
T2 sequence (P05067 672-713 limits assumed): as above

Molecule	IC50 (Aβ1-42) [µM]	also measured
NCCCS(=O)(=O)O [Alzhemed, 3-amino-1-propanesulfonic acid, reference compound]		inhibition of Aβ1-42 monomer assembly into Aβ oligomers (Aβ1-42; standard FRET assay conditions of Example 1, comparative example, FIG 2): inability
O=C(C/C(=N/NC(=O)c1ccccc1O)C(F)(F)F)c1cccs1 [Compound 2, 2-Hydroxy-benzoic acid [3-oxo-3-thiophen-2-yl-1-trifluoromethyl-prop-(Z)-ylidene]-hydrazide]	26	
O=C(C/C(=N/NC(=O)c1ccccc1O)C(F)(F)F)c1ccco1 [Compound 3, 2-Hydroxy-benzoic acid [3-oxo-3-furan-2-yl-1-trifluoromethyl-prop-(Z)-ylidene)-hydrazide]	13.5	
CCOC(=O)c1c(NC(=O)C(=O)N/N=C/c2ccccc2O)sc2c1CCC(C)C2 (centres unmarked) [Compound 7, 2-{[1-(2-Hydroxyphenyl)-meth-(E)-ylidene-hydrazinooxalyl]-amino} -6-methyl-4,5,6,7-tetrahydro-benzo[b]thiophene-3-carboxylic acid ethyl ester]		inhibition of Aβ1-42 oligomer assembly (Aβ1-42; 1 mM Aβ1-42 total monomer, 100 mM MgCl2, compound ranging from 0.05 to 3 mM, FIG. 1): dose dependent inhibition
CCC1=NN(C(=O)C(=O)Nc2ccccc2OC)C(O)(C(F)(F)F)C1 (centres unmarked) [Compound 8, 2-(3-ethyl-5-hydroxy-5-(trifluoromethyl)-4,5-dihydro-1H-pyrazol-1-yl)-N-(2-methoxyphenyl)-2-oxoacetamide]	7	
CCCC1=NN(C(=O)C(=O)Nc2ccccc2OC)C(O)(C(F)(F)F)C1 (centres unmarked) [Compound 9, 2-(5-hydroxy-3-propyl-5-(trifluoromethyl)-4,5-dihydro-1H-pyrazol-1-yl)-N-(2-methoxyphenyl)-2-oxoacetamide]	6.4	
COc1ccccc1NC(=O)C(=O)N1N=C(C(C)C)CC1(O)C(F)(F)F (centres unmarked) [Compound 10, 2-(5-hydroxy-3-isopropyl-5-(trifluoromethyl)-4,5-dihydro-1H-pyrazol-1-yl)-N-(2-methoxyphenyl)-2-oxoacetamide]	24.3	
CCCC1=NN(C(=O)c2ccccc2O)C(O)(C(F)(F)F)C1 (centres unmarked) [Compound 12, (5-hydroxy-3-propyl-5-(trifluoromethyl)-4,5-dihydro-1H-pyrazol-1-yl)(2-hydroxyphenyl)methanone]	8.5	
CCC1=NN(C(=O)C(=O)Nc2ccc(Br)cc2)C(O)(C(F)(F)F)C1 (centres unmarked) [Compound 13, N-(4-bromophenyl)-2-(3-ethyl-5-hydroxy-5-(trifluoromethyl)-4,5-dihydro-1H-pyrazol-1-yl)-2-oxoacetamide]	17	
CCCC1=NN(C(=O)C(=O)NCCc2ccccc2)C(O)(C(F)(F)F)C1 (centres unmarked) [Compound 14, 2-(5-hydroxy-3-propyl-5-(trifluoromethyl)-4,5-dihydro-1H-pyrazol-1-yl)-2-oxo-N-phenethylacetamide]	34.4	
CCCC1=NN(C(=O)C(=O)Nc2ccc(Br)cc2)C(O)(C(F)(F)F)C1 (centres unmarked) [Compound 15, N-(4-bromophenyl)-2-(5-hydroxy-3-propyl-5-(trifluoromethyl)-4,5-dihydro-1H-pyrazol-1-yl)-2-oxoacetamide]	7.8	
CCCCC1=NN(C(=O)C(=O)NCCc2ccccc2)C(O)(C(F)(F)F)C1 (centres unmarked) [Compound 16, 2-(3-butyl-5-hydroxy-5-(trifluoromethyl)-4,5-dihydro-1H-pyrazol-1-yl)-2-oxo-N-phenethylacetamide]	38.8	
CC(C)CC1=NN(C(=O)C(=O)NCCc2ccccc2)C(O)(C(F)(F)F)C1 (centres unmarked) [Compound 17, 2-(5-hydroxy-3-isobutyl-5-(trifluoromethyl)-0,5-dihydro-1H-pyrazol-1-yl)-2-oxo-N-phenethylacetamide]	41.3	
CCCCCC1=NN(C(=O)C(=O)Nc2ccc(Br)cc2)C(O)(C(F)(F)F)C1 (centres unmarked) [Compound 18, N-(4-bromophenyl)-2-(5-hydroxy-3-pentyl-5-(trifluoromethyl)-4,5-dihydro-1H-pyrazol-1-yl)-2-oxoacetamide]	11.6	
CCCCCC1=NN(C(=O)C(=O)Nc2ccc(OC)cc2)C(O)(C(F)(F)F)C1 (centres unmarked) [Compound 19, 2-(5-hydroxy-3-pentyl-5-(trifluoromethyl)-4,5-dihydro-1H-pyrazol-1-yl)-N-(4-methoxyphenyl)-2-oxoacetamide]	8.7	
CC(C)CCC1=NN(C(=O)C(=O)NCCc2ccccc2)C(O)(C(F)(F)F)C1 (centres unmarked) [Compound 20, 2-(5-hydroxy-3-isopentyl-5-(trifluoromethyl)-4,5-dihydro-1H-pyrazol-1-yl)-2-oxo-N-phenethylacetamide]	17	
CCCCCCC1=NN(C(=O)C(=O)Nc2ccc(OC)cc2)C(O)(C(F)(F)F)C1 (centres unmarked) [Compound 22, 2-(3-hexyl-5-hydroxy-5-(trifluoromethyl)-4,5-dihydro-1H-pyrazol-1-yl)-N-(4-methoxyphenyl)-2-oxoacetamide]	8.2	
COc1ccccc1NC(=O)C(=O)N1N=C(C2CCCCC2)CC1(O)C(F)(F)F (centres unmarked) [Compound 23, 2-(3-cyclohexyl-5-hydroxy-5-(trifluoromethyl)-4,5-dihydro-1H-pyrazol-1-yl)-N-(2-methoxyphenyl)-2-oxoacetamide]	29.1	
O=C(N/N=C/c1c(O)ccc2ccccc12)c1ccccc1O [Compound 24, (E)-2-hydroxy-N'-((2-hydroxynaphthalen-1-yl)methylene) benzohydrazide]		increase in Perseveration Errors (Aβ1-42 ADDLs; combined with the requisite concentration of Aβ1-42 ADDLs, result in words): eliminated the increase in Perseveration Errors; Approach Errors Mean (Aβ1-42 ADDLs; [1]): 1.00; Perseveration Errors Mean (Aβ1-42 ADDLs; [1]): 0.92; error rates (Aβ1-42 ADDLs; given alone, result in words): did not increase error rates; Approach Errors Mean (Aβ1-42 ADDLs; injectate given alone): 0.96; Perseveration Errors Mean (Aβ1-42 ADDLs; injectate given alone): 0.95
O=C(N/N=C/c1cc(Br)cc(Br)c1O)c1ccccc1O [Compound 26, (E)-N'-(3,5-dibromo-2-hydroxybenzylidene)-2-hydroxybenzohydrazide]	5.8	
O=C(N/N=C/c1cc(Br)ccc1O)c1ccccc1O [Compound 27, (E)-N'-(5-bromo-2-hydroxybenzylidene)-2-hydroxybenzohydrazide]	19.3	
Aβ1-42 ADDLs: ADDLs made from synthetic Aβ1-42; soluble, oligomeric, globular, non-fibrillar, neurotoxic Aβ1-42 peptides		Approach Errors Mean (Aβ1-42 ADDLs; injectate given alone): 1.02; Perseveration Errors Mean (Aβ1-42 ADDLs; injectate given alone): 1.33; Perseveration Error rate (Aβ1-42 ADDLs; versus baseline error rates, ADDLs alone, result in words): significantly increased
